Patent US20120034193A1, “TREATMENT OF NEUROTROPHIC FACTOR MEDIATED DISORDERS” (priority 2009, published 2012)

What was measured:
[1] = tested on: phosphorylated CREB (pCREB); test: Phosphorylated CREB in CHO cells (immunoblot); format: cell-based, Chinese hamster; settings: 10 μM, 24 h, control 0.729 ± 0.112
Method: The CHO were incubated with DMSO (0.5%) or sarsasapogenin (10 μM) for 24 h. The cells were then washed with cold PBS, lysed in sodium dodecyl sulfate (SDS) buffer, boiled for 5 min and the protein content measured by the Bradford method. The samples were then separated on SDS polyacrylamide gels and transferred to PVDF (Bio-Rad) membrane. After exposure for 1 h in 5% skimmed milk powder, membranes were incubated overnight at 4° C. in primary antibody: mouse pCREB (Upsdate, 1:1000) and mouse β-actin (Santa Cruz, 1:1000). The membranes were then incubated in peroxidase conjugated secondary antibody (Wuhan Boster Biology Technology, China. 1:2000) for 1 h at room temperature and developed with ECL reagents (Pierce). Membranes were stripped by incubating in 2-mercaptoethanol (100 mM), SDS (2%), Tris HCl (62.5 mM) at pH 6.8 and 50° C. for 30 min Densitometric quantification of immunostaining was performed using Image J analysis system with an image analyzer (Gel Doc 2000, Bio-Rad). The relative amount of immunostaining of each band of pCREB was normalised to the β-actin band run in the same experiment and expressed as arbitrary units.

[2] = target: Choline acetyltransferase (Homo sapiens, UniProt P28329); test: Enzyme activity assay; format: biochemical; settings: sarsasapogenin 100 μM
Method: (§1) The enzyme activity modulation was investigated using the following method: Sarsasapogenin was incubated with each enzyme plus a specific substrate for each enzyme. After the incubation period the reaction was stopped and the reduction of the specific substrate or the increase in a specific product in the absence and presence of sarsasapogenin was measured and the percent inhibition of the reaction in the presence of sarsasapogenin was calculated. The amount of enzyme used, the incubation conditions, the substrate used and the method of quantification varied depending on each specific assay.

Acetylcholinesterase = Acetylcholinesterase (Homo sapiens, UniProt P22303); test: Enzyme activity assay; format: biochemical; settings: sarsasapogenin 10 μM
Method: as §1

[3] = target: Nicotinic Acetylcholine α7, Bungarotoxin (Rattus norvegicus, UniProt Q05941); test: Binding assay; settings: smilagenin 1 μM
GDNF = GDNF in culture medium of rat dopaminergic neurones exposed to MPP+; format: cell-based; settings: 10 μM from day 6, MPP+ 2 μM day 8 for 48 h; MPP+ alone 2.7 ± 0.5
Method: Rat dopaminergic neurones were prepared using a slightly modified previously described method (Brouard et al., Journal of Neuroscience, 1992, 12, pp. 1409-1415). On day 6 the culture medium was replaced with fresh medium or fresh medium containing smilagenin (10 μM) or vehicle (DMSO, 0.25%). On day 8, MPP^+ (2 μM) or vehicle (saline) was added and 48 h later dopaminergic neurones were stained and the concentration of GDNF in the culture medium, neuronal damage and neurite outgrowth were assessed.

[4] = tested on: dopamine transporter (DAT); test: Striatal DAT level in MPTP-lesioned mice ([I^125]-RTI binding), 60 days; format: in vivo, C57b1/6 RJ mice; settings: 10 mg/kg/day oral, control 74.4, MPTP 23.4
Method: Seven-week old male C57b1/6 RJ mice (C57 mice) received daily injections 1-methyl-4-phenyl-1,2,3,6-tetrahydropyridine (MPTP, 25 mg/kg/day, i.p., for 5 consecutive days) and oral administration of smilagenin (10 mg/kg/day) or vehicle (hydroxylpropylmethylcellulose, HPMC 0.5% w/v containing tween-80 0.2% v/v) for 60 days after which time their brains were removed for quantification of striatal levels of GDNF and BDNF using an ELISA and of dopamine transporter (DAT) levels using [I^125]-RTI binding. DAT is a marker for neuronal damage to dopaminergic neurones.

[5] = target: 5-Hydroxytryptamine, 5-HT4 (Cavia porcellus, UniProt O70528); test: Binding assay; parameters: species or system Guinea pig; settings: smilagenin 1 μM
Method: (§2) The receptor binding was investigated using the following method: Sarsasapogenin was incubated with tissue or cell homogenate that expressed the receptor of interest and a known concentration a radiolabelled compound with affinity for the receptor of interest. After the incubation period the non-bound radiolabelled compound was removed and the amount of specific binding was quantified. The amount of specific binding in the presence and absence of sarsasapogenin were compared and the percent inhibition of the binding of the radiolabelled compound by sarsasapogenin was calculated. The source of the receptor, the incubation conditions, the radiolabelled compound used varied depending on each specific assay.
(§3) Using the same methods as described above, the binding of smilagenin (1 μM) to the receptors listed in Table 2 below, and the effect of smilagenin on the activity of the enzymes listed in Table 2 below, were investigated.

[6] = tested on: Atrial Natriuretic Factor; test: Binding assay; parameters: species or system Guinea pig; settings: smilagenin 1 μM
Method: as §2, §3

Transporter, Adenosine = test: Binding assay; parameters: species or system Guinea pig; settings: smilagenin 1 μM
Method: as §2, §3

[7] = tested on: dopamine transporter (DAT); test: Striatal DAT level in control and MPTP mice, 61 or 71 days of dosing; format: in vivo, C57 mice; settings: 10 mg/kg/day oral
Method: In a similar experiment, 10-week old male C57 mice received daily injections of saline or MPTP (25 mg/kg/day, i.p.) for 5 consecutive days (days 1-5) and oral administration of smilagenin (10 mg/kg/day) or vehicle (HPMC 0.5% w/v containing tween-80 0.2% v/v) for 61 days (days […]) or 71 days (days 2-72) after which time their brains were removed for quantification of striatal levels of DAT, marker of the extent of neuronal damage to dopaminergic neurones

Chain of Nicotinic Acetylcholine α7, Bungarotoxin (Q05941 23-502): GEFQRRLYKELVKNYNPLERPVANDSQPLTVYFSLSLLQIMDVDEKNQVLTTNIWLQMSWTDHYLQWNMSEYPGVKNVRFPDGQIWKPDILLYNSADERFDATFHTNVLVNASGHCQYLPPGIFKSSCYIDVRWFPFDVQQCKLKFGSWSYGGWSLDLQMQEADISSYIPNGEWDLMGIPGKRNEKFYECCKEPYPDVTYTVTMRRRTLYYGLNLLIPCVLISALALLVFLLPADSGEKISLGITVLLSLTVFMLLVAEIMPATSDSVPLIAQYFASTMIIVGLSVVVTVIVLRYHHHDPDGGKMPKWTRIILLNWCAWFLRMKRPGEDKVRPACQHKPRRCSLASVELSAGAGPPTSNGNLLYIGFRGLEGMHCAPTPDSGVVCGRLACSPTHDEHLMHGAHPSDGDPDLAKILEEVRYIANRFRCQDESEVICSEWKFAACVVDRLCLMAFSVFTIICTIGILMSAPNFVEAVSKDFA
Chain of 5-Hydroxytryptamine, 5-HT4 (O70528 whole entry): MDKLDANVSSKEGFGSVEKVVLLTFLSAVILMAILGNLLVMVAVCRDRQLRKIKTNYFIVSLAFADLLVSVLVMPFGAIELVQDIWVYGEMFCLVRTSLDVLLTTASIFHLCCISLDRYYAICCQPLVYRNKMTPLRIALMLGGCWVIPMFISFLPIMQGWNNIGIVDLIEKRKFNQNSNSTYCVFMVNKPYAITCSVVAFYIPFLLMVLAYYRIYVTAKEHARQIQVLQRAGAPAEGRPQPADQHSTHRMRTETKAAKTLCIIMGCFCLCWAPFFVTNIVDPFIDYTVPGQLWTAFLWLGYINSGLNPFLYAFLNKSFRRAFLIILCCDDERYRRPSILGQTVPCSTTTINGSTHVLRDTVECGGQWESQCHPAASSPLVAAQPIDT
Chain of Acetylcholinesterase (P22303 32-614): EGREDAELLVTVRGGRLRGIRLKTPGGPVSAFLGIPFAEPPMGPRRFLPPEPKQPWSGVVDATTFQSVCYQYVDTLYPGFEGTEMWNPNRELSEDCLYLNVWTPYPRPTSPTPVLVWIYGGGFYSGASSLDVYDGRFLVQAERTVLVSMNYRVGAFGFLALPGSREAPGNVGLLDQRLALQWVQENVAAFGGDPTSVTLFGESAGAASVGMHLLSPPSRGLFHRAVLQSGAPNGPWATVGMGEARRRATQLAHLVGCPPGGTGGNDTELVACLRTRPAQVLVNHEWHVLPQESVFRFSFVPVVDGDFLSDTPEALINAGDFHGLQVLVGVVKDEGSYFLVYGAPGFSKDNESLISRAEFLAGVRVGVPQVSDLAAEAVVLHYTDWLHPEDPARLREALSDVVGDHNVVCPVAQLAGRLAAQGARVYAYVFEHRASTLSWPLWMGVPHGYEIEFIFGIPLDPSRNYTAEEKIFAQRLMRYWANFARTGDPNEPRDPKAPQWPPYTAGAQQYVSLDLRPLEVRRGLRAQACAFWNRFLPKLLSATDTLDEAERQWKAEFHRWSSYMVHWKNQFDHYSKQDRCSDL
Chain of Choline acetyltransferase (P28329 whole entry): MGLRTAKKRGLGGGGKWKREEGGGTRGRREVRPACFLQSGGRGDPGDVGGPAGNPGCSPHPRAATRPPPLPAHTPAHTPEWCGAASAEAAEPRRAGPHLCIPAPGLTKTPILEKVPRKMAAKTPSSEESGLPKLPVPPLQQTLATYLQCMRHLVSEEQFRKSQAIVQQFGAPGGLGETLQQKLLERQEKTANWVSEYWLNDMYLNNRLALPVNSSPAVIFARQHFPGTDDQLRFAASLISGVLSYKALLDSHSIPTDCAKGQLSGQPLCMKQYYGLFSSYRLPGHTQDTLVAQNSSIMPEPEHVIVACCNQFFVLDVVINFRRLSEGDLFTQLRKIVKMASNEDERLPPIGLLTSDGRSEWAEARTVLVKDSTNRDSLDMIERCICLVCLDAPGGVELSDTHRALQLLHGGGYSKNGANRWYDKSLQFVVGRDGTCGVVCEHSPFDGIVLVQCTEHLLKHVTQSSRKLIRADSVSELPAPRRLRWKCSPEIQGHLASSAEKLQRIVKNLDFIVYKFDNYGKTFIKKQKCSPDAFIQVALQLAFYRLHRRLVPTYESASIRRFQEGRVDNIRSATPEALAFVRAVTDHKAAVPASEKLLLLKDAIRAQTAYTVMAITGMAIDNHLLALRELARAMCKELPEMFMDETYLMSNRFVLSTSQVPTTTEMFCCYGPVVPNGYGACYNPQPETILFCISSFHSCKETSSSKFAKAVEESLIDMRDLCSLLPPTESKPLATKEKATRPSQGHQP

| Compound | Phosphorylated CREB (Arbitary units) [1] | Effect (%) [2] | Effect (%) (Acetylcholinesterase) | Effect (%) [3] | GDNF concentration (GDNF) | DAT level ([I^125]-RTI binding in the striatum; nCi/g protein) [4] | Effect (%) [5] | Effect (%) [6] | Effect (%) (Transporter, Adenosine) | DAT level ([I^125]-RTI binding in the striatum; nCi/g protein) ([7]; MPTP mice, days 2-72) | DAT level ([I^125]-RTI binding in the striatum; nCi/g protein) ([7]; MPTP mice, days 12-72) | DAT level ([I^125]-RTI binding in the striatum; nCi/g protein) ([7]; control mice (no MPTP), days 2-72) |
| --- | --- | --- | --- | --- | --- | --- | --- | --- | --- | --- | --- | --- |
| C[C@H]1CC[C@@]2(OC1)O[C@H]1C[C@H]3[C@@H]4CC[C@@H]5C[C@@H](O)CC[C@]5(C)[C@H]4CC[C@]3(C)[C@H]1[C@@H]2C [Sarsasapogenin, sarsasapogenin] | 1.342 ± 0.084^++ Arbitary units | NS (NS = No significant response. Significance was taken as ≧30% stimulation or inhibition) | NS (NS = No significant response. Significance was taken as ≧30% stimulation or inhibition) | – | – | – | – | – | – | – | – | – |
| C[C@@H]1CC[C@@]2(OC1)O[C@H]1C[C@H]3[C@@H]4CC[C@@H]5C[C@@H](O)CC[C@]5(C)[C@H]4CC[C@]3(C)[C@H]1[C@@H]2C [Smilagenin, smilagenin] | – | – | – | NS (NS = No significant response. Significance was taken as ≧30% stimulation or inhibition) | 6.6 ± 0.7 pg/mL | 69.7 ± 8.8 nCi/g protein | NS (NS = No significant response. Significance was taken as ≧30% stimulation or inhibition) | NS (NS = No significant response. Significance was taken as ≧30% stimulation or inhibition) | NS (NS = No significant response. Significance was taken as ≧30% stimulation or inhibition) | 256.2 ± 21.4^++++ nCi/g protein | 280.3 ± 18.3^++++ nCi/g protein | 406.2 ± 21.8 nCi/g protein |
